This note sets out measurements from ChEMBL document CHEMBL2401685 (Bioorg Med Chem Lett, 2013).

Structures are written as SMILES. The source made the active and inactive calls. The calls are words filed in the database; no cut-off is given here.

Assay [1] has as its target T1, 11-beta-hydroxysteroid dehydrogenase type 2 (Homo sapiens) (UniProt P80365).
T1 sequence (whole entry): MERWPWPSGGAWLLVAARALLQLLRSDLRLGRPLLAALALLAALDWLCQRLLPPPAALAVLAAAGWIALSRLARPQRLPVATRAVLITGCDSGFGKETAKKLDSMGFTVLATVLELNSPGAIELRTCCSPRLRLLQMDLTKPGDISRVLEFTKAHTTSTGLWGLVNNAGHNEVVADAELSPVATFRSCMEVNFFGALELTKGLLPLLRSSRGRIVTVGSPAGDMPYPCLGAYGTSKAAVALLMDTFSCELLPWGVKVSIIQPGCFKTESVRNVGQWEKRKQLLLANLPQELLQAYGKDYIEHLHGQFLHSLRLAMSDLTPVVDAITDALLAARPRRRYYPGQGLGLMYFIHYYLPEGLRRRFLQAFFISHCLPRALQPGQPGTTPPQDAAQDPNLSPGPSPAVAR
Description: Inhibition of 11beta-HSD2 in human kidney microsomes using [3H]-cortisol as substrate assessed as formation of cortisone at 100 uM after 30 mins by radiometric analysis relative to control. Conditions: Microsome.

In assay [2] the target is T2, 11-beta-hydroxysteroid dehydrogenase 1 (Homo sapiens, UniProt P28845). Description: Inhibition of human 11beta-HSD1 transfected in CHOP cells at 100 uM relative to control. In kind it is cell-based.
The target of assay [3] is 11-beta-hydroxysteroid dehydrogenase 1 (Rattus norvegicus) (UniProt P16232). The assay is described as follows: Inhibition of 11beta-HSD1 in Sprague-Dawley rat leydig cells […] relative to control. Conditions: 100 uM.
The target in assay [4] is T3, 11-beta-hydroxysteroid dehydrogenase type 2 (Rattus norvegicus) (UniProt P50233).
T3 sequence (whole entry): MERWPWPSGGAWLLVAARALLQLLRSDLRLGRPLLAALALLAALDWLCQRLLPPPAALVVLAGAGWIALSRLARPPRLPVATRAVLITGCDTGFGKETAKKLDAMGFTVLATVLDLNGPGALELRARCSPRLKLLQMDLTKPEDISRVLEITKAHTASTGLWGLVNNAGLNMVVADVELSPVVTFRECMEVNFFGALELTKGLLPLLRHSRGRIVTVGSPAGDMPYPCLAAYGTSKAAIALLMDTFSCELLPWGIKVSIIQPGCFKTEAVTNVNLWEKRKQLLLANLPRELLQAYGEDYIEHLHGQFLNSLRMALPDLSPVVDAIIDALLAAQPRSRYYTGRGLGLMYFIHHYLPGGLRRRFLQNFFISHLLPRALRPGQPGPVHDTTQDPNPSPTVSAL
The assay is described as follows: Inhibition of 11beta-HSD2 in rat kidney microsomes using [3H]-CORT as substrate assessed as formation of 11-DHC at 100 uM after 30 mins by radiometric analysis relative to control. As to conditions: Microsome.

Another assay relates to J774.A1. The assay is described as follows: Antiinflammatory activity in mouse J774A1 cells assessed as LPS-induced TNFalpha production at 10 uM incubated 2 hrs prior to LPS challenge measured after 24 hrs by ELISA relative to vehicle-treated control. In kind it is functional. For orientation: In an ELISA, binding on a coated surface is turned into a signal by an enzyme label.

In assay [5] the target is T2, 11-beta-hydroxysteroid dehydrogenase 1. Description: Inhibition of 11beta-HSD1 in human liver microsomes using [3H]-cortisone as substrate assessed as formation of cortisol at 100 uM after 60 to 90 mins by radiometric analysis relative to control. As to conditions: Microsome. On the technique in general: Microsomes from liver hold many membrane-bound enzymes, among them those of drug oxidation.

In assay [6] the target is 11-beta-hydroxysteroid dehydrogenase 1 (Rattus norvegicus) (UniProt P16232). Description: Inhibition of 11beta-HSD1 in rat testis microsomes using [3H]-11-DHC as substrate assessed as formation of CORT at 100 uM after 60 to 90 mins by radiometric analysis relative to control. Conditions: Microsome.
Assay [7] concerns the target 11-beta-hydroxysteroid dehydrogenase 1 (Rattus norvegicus, UniProt P16232). Description: Inhibition of 11beta-HSD1 in Sprague-Dawley rat leydig cells […].

T2 sequence (P28845 whole entry, looked up): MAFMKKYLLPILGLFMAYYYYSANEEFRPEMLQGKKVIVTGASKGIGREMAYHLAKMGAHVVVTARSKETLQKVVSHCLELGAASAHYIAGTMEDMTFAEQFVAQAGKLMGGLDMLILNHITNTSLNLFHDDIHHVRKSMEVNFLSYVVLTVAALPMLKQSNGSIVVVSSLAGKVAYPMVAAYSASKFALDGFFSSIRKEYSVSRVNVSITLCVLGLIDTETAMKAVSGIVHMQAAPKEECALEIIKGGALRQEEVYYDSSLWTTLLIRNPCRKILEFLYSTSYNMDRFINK
Sequence of 11-beta-hydroxysteroid dehydrogenase 1 (Rattus norvegicus) (P16232 whole entry, looked up): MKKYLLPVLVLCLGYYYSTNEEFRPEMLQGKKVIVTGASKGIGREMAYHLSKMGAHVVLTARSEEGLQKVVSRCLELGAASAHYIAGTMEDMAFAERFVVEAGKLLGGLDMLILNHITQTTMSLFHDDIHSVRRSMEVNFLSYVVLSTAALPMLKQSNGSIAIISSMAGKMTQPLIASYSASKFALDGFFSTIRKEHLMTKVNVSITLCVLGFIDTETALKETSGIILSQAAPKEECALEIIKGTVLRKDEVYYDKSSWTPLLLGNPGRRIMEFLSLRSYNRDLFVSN
Sequence of 11-beta-hydroxysteroid dehydrogenase 1 (Rattus norvegicus, UniProt P16232) (P16232 whole entry): as the sequence (P16232 whole entry, looked up) above

By inhibition is commonly meant the relative decrease from the control value, in per cent. Turning to `O=C1/C(=C/c2ccc(OC3CCCCO3)cc2)CC/C1=C\c1ccc(OC2CCCCO2)cc1` (stereo not drawn), the inhibition came out at 0% in assay [1]; 9% in assay [2]; 22% in assay [3]; 13% in assay [4]; 30% in assay [5]; 11% in assay [6]. In the assay with J774.A1, the inhibition result is “inactive”.
As for `O=C1/C(=C/c2ccc(O)cc2)CC/C1=C\c1ccc(O)cc1`, the inhibition in assay [1] is 0%; in assay [2] it was 12%; in assay [3], 21%; in assay [4], 17%; in assay [5] it was 39%; in assay [6], 32%.
As to `COc1cc(/C=C2\CC/C(=C\c3ccc(OC4CCCCO4)c(OC)c3)C2=O)ccc1OC1CCCCO1` (stereo not drawn), the inhibition in assay [1] is 0%; in assay [2], 26%; in assay [3], 18%; in assay [4] it was 11%; in assay [5], 26%; in assay [6] it was 13%. The inhibition entry with J774.A1 was “inactive”.
Turning to `COc1cc(/C=C2\CCC/C(=C\c3cc(OC)c(OC)c(OC)c3)C2=O)cc(OC)c1OC`, the inhibition worked out at 13% in assay [1]; 14% in assay [2]; 42% in assay [3]; 23% in assay [4]; 21% in assay [5]; 35% in assay [6]. For the same compound, the inhibition entry with J774.A1 was “inactive”.
Turning to `CN(C)c1ccc(/C=C2\CCC/C(=C\c3ccc(N(C)C)cc3)C2=O)cc1`, the inhibition came out at 21% in assay [1]; 26% in assay [2]; 37% in assay [3]; 20% in assay [4]; 14% in assay [5]; 16% in assay [6]. Moreover, the inhibition result in the assay with J774.A1 was “inactive”.
As to `CN(C)c1ccc(/C=C2\CC/C(=C\c3ccc(N(C)C)cc3)C2=O)cc1`, the inhibition worked out at 0% in assay [1]; 16% in assay [2]; 13% in assay [3]; 1% in assay [4]; 15% in assay [5]; 0% in assay [6]. The inhibition entry in the assay on J774.A1 was “inactive”.
On to `C=CCOc1ccc(/C=C/C(=O)/C=C/c2ccc(OCC=C)cc2)cc1`, for which the inhibition came out at 2% in assay [1]; 4% in assay [2]; 22% in assay [3]; 16% in assay [4]; 35% in assay [5]; 0% in assay [6].
Regarding `O=C1/C(=C/c2cccc(C(F)(F)F)c2F)CC/C1=C\c1cccc(C(F)(F)F)c1F`, the inhibition worked out at 0% in assay [1]; 24% in assay [2]; 22% in assay [3]; 5% in assay [4]; 23% in assay [5]; 2% in assay [6].
On to `C=CCOc1ccc(/C=C2\CC/C(=C\c3ccc(OCC=C)cc3)C2=O)cc1`, for which the inhibition in assay [1] came out at 0%; in assay [2], 23%; in assay [3], 10%; in assay [4] it was 15%; in assay [5], 28%; in assay [6], 9%.
On to `C=CCOc1ccc(/C=C/C(=O)/C=C/c2ccc(OCC=C)c(OC)c2)cc1OC`, for which the inhibition came to 13% in assay [1]; 1% in assay [2]; 18% in assay [3]; 19% in assay [4]; 14% in assay [5]; 9% in assay [6].
`O=C1/C(=C/c2ccc(OC3CCCCO3)cc2)CCC/C1=C\c1ccc(OC2CCCCO2)cc1` (stereo not drawn): the inhibition in assay [1] came out at 17%; in assay [2], 28%; in assay [3] it was 28%; in assay [4] it was 48%; in assay [5], 14%; in assay [6], 45%. In the assay with J774.A1, the inhibition entry is “inactive”.
Regarding `COc1cc(/C=C/C(=O)/C=C/c2cc(OC)c(OC)c(OC)c2)cc(OC)c1OC`, the inhibition in assay [1] was found to be 1%; in assay [2] it was 40%; in assay [3], 5%; in assay [4], 11%; in assay [5], 16%; in assay [6], 0%. The inhibition entry with J774.A1 is “inactive”.
The IC50 is the concentration at which inhibition is half-maximal. A higher IC50 goes with weaker potency in that assay. Turning to `CCOc1ccc(/C=C/C(=O)/C=C/c2ccc(OCC)cc2)cc1`, the inhibition in assay [1] is 8%; in assay [2] it was 9%; in assay [4], 27%; in assay [5], 36%; in assay [6], 7%. Further, in assay [7], it took 9.95 µM to reach half-maximal inhibition (IC50).
As for `CN(C)c1ccc(/C=C/C(=O)/C=C/c2ccc(N(C)C)cc2)cc1`, the inhibition in assay [1] came to 0%; in assay [2] it was 29%; in assay [3] it was 10%; in assay [4], 13%; in assay [5] it was 24%; in assay [6], 0%. The inhibition entry in the assay on J774.A1 was “inactive”.
For the compound `O=C(/C=C/c1ccc(OC2CCCCO2)cc1)/C=C/c1ccc(OC2CCCCO2)cc1` (stereo not drawn), the inhibition was 13% in assay [1]; 54% in assay [2]; 24% in assay [4]; 36% in assay [5]; 13% in assay [6]. In assay [7], the half-inhibitory concentration (IC50) turned out to be 17.2 µM. For the same compound, in the assay with J774.A1, the inhibition result is “inactive”.
In the case of `C=CCOc1ccc(/C=C2\CCC/C(=C\c3ccc(OCC=C)c(OC)c3)C2=O)cc1OC`, the inhibition in assay [1] worked out at 6%; in assay [2], 16%; in assay [3], 6%; in assay [4], 8%; in assay [5], 7%; in assay [6], 15%.
As to `COc1cc(/C=C2\CC/C(=C\c3cc(OC)c(OC)c(OC)c3)C2=O)cc(OC)c1OC`, the inhibition stood at 5% in assay [1]; 31% in assay [2]; 18% in assay [3]; 9% in assay [4]; 16% in assay [5]; 12% in assay [6]. In the assay with J774.A1, the inhibition result was “inactive”.
On to `CN(C)CCCOc1ccc(/C=C2\CC/C(=C\c3ccc(OCCCN(C)C)cc3)C2=O)cc1`, for which the inhibition in assay [1] worked out at 24%; in assay [2], 49%; in assay [4] it was 12%; in assay [5] it was 15%; in assay [6], 2%. Moreover, 4.17 µM corresponded to half-maximal inhibition in assay [7] (IC50).
For `COc1cc(/C=C/C(=O)/C=C/c2ccc(OC3CCCCO3)c(OC)c2)ccc1OC1CCCCO1` (stereo not drawn), the inhibition was 0% in assay [1]; 28% in assay [2]; 16% in assay [4]; 28% in assay [5]; 19% in assay [6]. This compound also gave an IC50 in assay [7] of 52.5 µM.
For `C=CCOc1ccc(/C=C2\CC/C(=C\c3ccc(OCC=C)c(OC)c3)C2=O)cc1OC`, the inhibition amounted to 10% in assay [1]; 31% in assay [2]; 17% in assay [3]; 0% in assay [4]; 13% in assay [5]; 14% in assay [6].
As to `COc1cc(/C=C2\CC/C(=C\c3ccc(O)c(OC)c3)C2=O)ccc1O`, the inhibition is 13% in assay [1]; 17% in assay [2]; 19% in assay [3]; 34% in assay [4]; 49% in assay [5]; 52% in assay [6].
Take `C=CCOc1ccc(/C=C2\CCC/C(=C\c3ccc(OCC=C)cc3)C2=O)cc1`: the inhibition in assay [1] turned out to be 6%; in assay [2], 18%; in assay [3], 8%; in assay [4] it was 23%; in assay [5], 18%; in assay [6], 19%.
In the case of `CCOc1ccc(/C=C2\CCC/C(=C\c3ccc(OCC)cc3)C2=O)cc1`, the inhibition is 11% in assay [1]; 16% in assay [2]; 26% in assay [3]; 14% in assay [4]; 17% in assay [5]; 17% in assay [6].
